The species entered for test [1] is Homo sapiens. In words: Binding affinity to CBP KIX domain N627C mutant (unknown origin) after 1 hr by Fluorescent polarization assay.
Test [2] in a line: (§1) Displacement of fluorescent-labelled MLL from CBP KIX domain N627C mutant (unknown origin) after 1 hr by Fluorescent polarization assay. Set-up: species or system Homo sapiens.
The species named for test [3] is Homo sapiens. The description is as §1.
The species named for test [4] is Homo sapiens. In words: Displacement of fluorescent-labelled MLL from CBP KIX domain N627C mutant (unknown origin) at 250 uM after 1 hr by Fluorescent polarization assay.
The species named for test [5] is Homo sapiens. The test can be described thus: Binding affinity to CBP KIX domain H602C mutant (unknown origin) after 1 hr by Fluorescent polarization assay.
The species entered for test [6] is Homo sapiens. In words: Displacement of fluorescent-labelled pKID from CBP KIX domain H602C mutant (unknown origin) after 1 hr by Fluorescent polarization assay. The settings on record: concentration not given here.
Test [7] is filed under the species Homo sapiens. The test can be described thus: Binding affinity to CBP KIX domain H602C mutant (unknown origin) assessed as increase in binding affinity constant for c-Myb by fluorescence polarization tethering assay. Background: Fluorescence polarisation rises when a labelled molecule tumbles more slowly, as on binding a larger partner.
The species named for test [8] is Homo sapiens. In words: Binding affinity to CBP KIX domain H602C mutant (unknown origin) assessed as increase in binding affinity constant for phosphorylated KID by fluorescence polarization tethering assay.
The species named for test [9] is Homo sapiens. In words: Binding affinity to CBP KIX domain H602C mutant (unknown origin) assessed as increase in binding affinity constant for MLL by fluorescence polarization tethering assay.

pIC50: −log10 of the molar value.

`CN(C)CCSSCCC(=O)N1CCC(O)(c2ccc(Cl)c(C(F)(F)F)c2)CC1` displayed an Activity in the test filed under Homo sapiens [1] of 67%. For the same compound, in [2], the pIC50 was 4.17. The inhibition entry in the test listed under Homo sapiens [3] is “Dose-dependent effect”; in the test filed under Homo sapiens [4] it was 44%.

With `CN(C)CCSSCCNC(=O)C1CCN(C(=O)c2ccccc2Nc2ccccc2)CC1`, the Activity in the test listed under Homo sapiens [5] is 15%. Also, the inhibition in the test listed under Homo sapiens [6] stood at 22%.

As for `CC(=O)Nc1ccc(Cl)c(NC(=O)NCCSSCCN(C)C)c1`, the fold change (FC) was 9 in the test filed under Homo sapiens [7], 6.5 in the test listed under Homo sapiens [8] and 9 in the test filed under Homo sapiens [9]. In the test listed under Homo sapiens [5], this compound yielded an Activity of 71%. The compound further yielded an inhibition in the test listed under Homo sapiens [6] of 24%.

In turn, `COc1ccc2cc([C@H](C)C(=O)NCCSSCCN)ccc2c1` registered an Activity in the test listed under Homo sapiens [1] of 36%. Besides, the inhibition in the test listed under Homo sapiens [4] was found to be 32%.

What is called pIC50 is the negative decadic logarithm of the IC50, by convention in mol/L. A low value points to a high IC50. A word on the inhibition: it is the change of the read-out against control, counted positive when it falls.

The record behind these values is ChEMBL document CHEMBL3217462, “FP Tethering: a screening technique to rapidly identify compounds that disrupt protein-protein interactions” (Medchemcomm, 2014).
